In patent US20230399368A1, “CARRIER PEPTIDE FRAGMENT AND USE THEREOF” (TOAGOSEI CO., LTD., priority 2020, published 2023):
“Also recorded” adds a separate entry of the source. FAM = fluorescent dye FAM

Test system: HeLa cells
Experiment: Evaluation of the cell membrane permeability by flow cytometry (FAM fluorescence) in HeLa cell culture
Type: cell-based, human
Details: for MFI (mean fluorescent intensity): 10 μM in culture medium, 0.5% DMSO, 20 hours incubation at 37° C., detector FL2, mean value of triplicate; for introduction of the fluorescent dye (FAM) into the cytoplasm, shift of the flow cytometry histogram on the X-axis (FIG. 1): compared with Example 3 (only FAM) or Example 2
Method: The cell membrane permeability of sample 1 and sample 2 was evaluated using HeLa cells (an established cell line derived from human cervical cancer cells) as the eukaryotic cells.
HeLa cells were cultured on DMEM (Dulbecco's modified Eagle's medium (Cat. No. 043-30085, from FUJIFILM Wako Pure Chemical Corporation)) containing 10% FBS (fetal bovine serum), which is a general culture medium.
The HeLa cells attached to the culture plate were washed with PBS, a 0.25% trypsin/EDTA solution was then added, and incubation was carried out for 3 minutes at 37° C. After this incubation, the aforementioned DMEM containing 10% FBS was added and the trypsin was inactivated, and the cells were then sedimented by carrying out centrifugal separation for 5 minutes at 150×g. The supernatant produced by the centrifugal separation was removed, and the aforementioned DMEM containing 10% FBS was added to the sediment (cell pellet) to prepare a cell suspension containing approximately 1×10^5 cells/mL. The cells were seeded (approximately 2×10^5 cells/well) by the addition of 2 mL of this cell suspension to the wells of a commercial 6-well plate (Iwaki). The cells were attached to the well bottom by culture for 3 hours at 37° C. under the condition of 5% CO2. In order to perform the evaluation of the cell membrane permeability in triplicate, the cells were seeded to three wells for the test of Example 1 and the following procedure was performed on each well.
The 2 mM sample solution 1 was then diluted with the aforementioned DMEM containing 10% FBS to prepare a sample solution 1 in which the sample 1 concentration was 20 μM. After the aforementioned 3-hour culture, 1 mL of the culture supernatant was removed from the well, followed by the addition to the well of 1 mL of the 20 μM sample solution 1 (i.e., the concentration of sample 1 in the culture medium in the well was brought to 10 μM and the DMSO concentration was brought to 0.5%). The cells were incubated for 20 hours at 37° C. under the condition of 5% CO2. After this 20-hour incubation, the culture supernatant was removed from the well and the cells in the well were washed twice with 1 mL PBS. 200 μL of a 0.25% trypsin/EDTA solution was then added to the well and incubation was carried out for 3 minutes at 37° C. After this incubation, the trypsin was inactivated by the addition of 400 μL of the aforementioned DMEM containing 10% FBS to the well, and the cells were subsequently recovered by transferring the cell suspension in the well to a tube. The well was then washed by the further addition of 600 μL PBS to the well. The cells that had remained in the well were recovered to the tube by transferring the PBS in the well to the tube. Centrifugal separation was run on this tube for 5 minutes using conditions of 4° C. and 210×g. After the centrifugal separation, the supernatant was removed, the sediment (cell pellet) was suspended (washed) with 1 mL of PBS, and centrifugal separation was carried out using the same conditions as before. After this procedure had been performed twice, the supernatant was removed to obtain cells (cell pellet) that had been cultured on a sample 1-containing culture medium.
The cell membrane permeability of sample 1 was evaluated using the resulting cells (cell pellet) and a flow cytometer. An On-Chip Flow Cytometer (On-chip Biotechnologies Co., Ltd.) was used for the flow cytometer.
For this analysis, the cell pellet obtained as described above was suspended in 50 μL PBS. To this suspension was added 50 μL of Sample Buffer 2× for use with the indicated flow cytometer to prepare a cell suspension for submission to analysis.
Gating was performed using this flow cytometer based on forward scatter (FSC) and side scatter (SSC); the gating was set for the cell population that was the target of the analysis; and the fluorescent intensity was measured for the cell population within this gating. The analysis was performed so this cell population reached at least 5,000 or more. […]

## 5(6)-carboxyfluorescein [Example 3, reference compound]
  MFI (mean fluorescent intensity): 6

## FAM-MAPRGFSCLLLLTSEIDLPVKRRA-COOH ({FAM}-MAPRGFSCLLLLTSEIDLPVKRRA-OH; listed as Homo sapiens) [Example 1]
  MFI (mean fluorescent intensity): 33.7
10 μM, 20 hours incubation
  introduction of the fluorescent dye (FAM) into the cytoplasm, shift of the flow cytometry histogram on the X-axis (FIG. 1): more efficiently introduced; also recorded: shifted more to the right on the X-axis than was the histogram for Example 2
10 μM, 20 hours incubation, ratio of MFI of Table 3
  efficiency (cell membrane permeability) compared using the MFI, Example 1 versus Example 2: approximately twice as high

## FAM-KKRTLRKNDRKKR-CONH2 ({FAM}-KKRTLRKNDRKKR-NH2) [Example 2, reference compound]
  MFI (mean fluorescent intensity): 15.5
10 μM, 20 hours incubation
  introduction of the fluorescent dye (FAM) into the cytoplasm, shift of the flow cytometry histogram on the X-axis (FIG. 1): more efficiently introduced
